≈ marks a conversion by molar mass, not a printed value.
Key:
[1] = test system: K. aerogenes A; assay: MIC by serial dilution in nutrient agar (human bacteria, Table 1); type: cell-based; details: Klebsiella aerogenes, 5% "chocolated" horse blood
[2] = test system: Sarcina lutea 8340; assay: as above; type: cell-based; details: Micrococcus luteus, 5% "chocolated" horse blood
[3] = test system: Ps. aeruginosa 10662; assay: as above; type: cell-based; details: Pseudomonas aeruginosa, 5% "chocolated" horse blood
[4] = test system: Strep.faecalis I; assay: as above; type: cell-based; details: Enterococcus faecalis, 5% "chocolated" horse blood
[5] = test system: Corynebacterium xerosis 9755; assay: as above; type: cell-based; details: 5% "chocolated" horse blood
[6] = test system: Pasteurella multocida 1633; assay: as above; type: cell-based; details: Pasteurella multocida, 1633
[7] = test system: Strep.pyogenes B 2788; assay: as above; type: cell-based; details: Streptococcus pyogenes, B2788, 5% "chocolated" horse blood
[8] = test system: Strep.pyogenes C 2761; assay: as above; type: cell-based; details: Streptococcus pyogenes, C2761, 5% "chocolated" horse blood
[9] = test system: Haemophilus influenzae Q1; assay: as above; type: cell-based; details: Haemophilus influenzae Q1; nutrient agar, 5% "chocolated" horse blood; read-out: MIC
[10] = test system: Strep.pyogenes A 64/848; assay: as above; type: cell-based; details: Streptococcus pyogenes, A64/848, 5% "chocolated" horse blood
[11] = test system: E.coli ESS; assay: as above; type: cell-based; details: Escherichia coli, 5% "chocolated" horse blood
[12] = test system: Staph.aureus Russell; assay: as above; type: cell-based; details: Staphylococcus aureus; Staph.aureus Russell; nutrient agar, 5% "chocolated" horse blood; read-out: MIC
[13] = test system: E.coli NCTC 10418; assay: as above; type: cell-based; details: Escherichia coli, NCTC10418, 5% "chocolated" horse blood
[14] = test system: M.suipneumoniae J2206/183b; assay: Anti-mycoplasmal MIC by serial dilution in Friis broth (Table 3); type: cell-based; details: Mesomycoplasma hyopneumoniae, read-out: in vitro MIC
From the text: (§1) *Determined by serial dilution in Friis broth (Friis N.F. 1975. Nord. Vet
(§2) Med. 27, 337) in microtiter plates using a modification of the metabolite
(§3) inhibition test (TaylorRobinson D. 1967. Postgrad. Med. J., 43, suppl.

[15] = test system: M.pneumoniae 427a; assay: as above; type: cell-based; details: Mycoplasmoides pneumoniae, read-out: in vitro MIC
From the text: as §1, §2, §3

[16] = test system: M.dispar NCTC 10125; assay: as above; type: cell-based; details: read-out: in vitro MIC
From the text: as §1, §2, §3

[17] = test system: Staph.aureus Oxford; assay: MIC by serial dilution in nutrient agar (human bacteria, Table 1); type: cell-based; details: Staphylococcus aureus; Staph.aureus Oxford; nutrient agar, 5% "chocolated" horse blood; read-out: MIC
[18] = test system: Bacillus subtilis 6633; assay: as above; type: cell-based; details: 5% "chocolated" horse blood
[19] = test system: P. mirabilis 889; assay: as above; type: cell-based; details: Proteus mirabilis, 5% "chocolated" horse blood
[20] = test system: Neisseria flavesceus 8263; assay: MIC by serial dilution in nutrient agar (human bacteria, Table 1, footnote a); type: cell-based
From the text: | ^ a Neisseria flavesceus 8263

[21] = test system: Haemophilus influenzae Wy21; assay: MIC by serial dilution in nutrient agar (human bacteria, Table 1); type: cell-based; details: 5% "chocolated" horse blood
[22] = test system: Gram-positive and Gram-negative organisms; details: disclosed in earlier patents; cited from earlier work

COC(=O)CCCCCCCCOC(=O)/C=C(\C)CC1OCC(CC2OC2C(C)C(C)=O)C(O)C1O (stereo not shown) [Example 1, Methyl 13-Oxopseudomonate A]
MIC [1]: > 200 µg/mL
MIC [2]: > 200 µg/mL
MIC [3]: > 200 µg/mL
MIC [4]: > 200 µg/mL
MIC [5]: > 200 µg/mL
MIC [6]: 1 µg/mL (≈ 1.95 µM)
MIC [7]: 10 µg/mL (≈ 19.5 µM)
MIC [8]: 2 µg/mL (≈ 3.9 µM)
MIC [9]: 0.5 µg/mL (≈ 0.975 µM)
MIC [10]: 0.5 µg/mL (≈ 0.975 µM)
MIC [11]: 2 µg/mL (≈ 3.9 µM)
MIC [12]: 2 µg/mL (≈ 3.9 µM)
MIC [13]: > 200 µg/mL
MIC [14]: 62.5 µg/mL (≈ 122 µM)
MIC [15]: 250 µg/mL (≈ 488 µM)
MIC [16]: 0.5 µg/mL (≈ 0.975 µM)
MIC [17]: 0.5 µg/mL (≈ 0.975 µM)
MIC [18]: 0.5 µg/mL (≈ 0.975 µM)
MIC [19]: > 200 µg/mL
MIC [20]: 1 µg/mL (≈ 1.95 µM)
MIC [21]: 0.5 µg/mL (≈ 0.975 µM)

CC(=CC(=O)OCCCCCCCCC(=O)O)CC1OCC(CC2OC2C(C)C(C)O)C(O)C1O (stereo not shown) [Pseudomonic acid]
antibacterial activity [22]: having antibacterial activity
